# Assays:
# fresh human hepatocytes = test: Release of active metabolite in fresh human hepatocytes; type: in vitro ADME; conditions: 10 μM compound
# In short: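 Overnight-acclimatized hepatocytes (0.8 million cells/well human, 0.5 million mouse) incubated at 37 °C with 10 μM test compound (0.1% DMSO). Sampled at 6, 24, 48 h (human) or 1, 4, 8, 12, 24 h (mouse); cells washed, extracted in cold 70% methanol, intracellular content quantified by LC-MS/MS with internal standard.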
# [1] = Stability in liver subcellular fractions (microsomes); type: in vitro ADME, human; conditions: 10 μM, 1.0 mg/mL microsomal protein, NADPH, 60 min, percent unchanged test compound
# Method: Stability of compounds were determined in subcellular fractions (microsomes) of human liver in duplicate for each matrix. Pooled liver microsomal proteins (1.0 mg/mL), suspended in incubation buffer (100 mM potassium phosphate, pH 7.4, 5 mM MgCl2, and 0.1 mM EDTA), were preincubated for 5 min at 37° C. with 10 μM of a test compound from a 10 mM stock solution in DMSO (final DMSO concentration was 0.1%); the reaction was initiated by the addition of NADPH (3 mM final concentration). At specific times (0 and 60 min), 0.1 mL samples were taken and the reaction terminated by the addition of 4 volumes of stop solution (acetonitrile with 500 ng/mL carbutamide as an internal standard). The samples were vortexed for 30 sec and then centrifuged at 16,000 g for 10 min. 100 μL of supernatants were transferred to 96 deep-well plates preloaded with 100 μL distilled water and analyzed after mixing by LC-MS/MS. The MS peak area ratio of the test compounds versus the internal standard was calculated and percent unchanged test compound over 60 minutes was calculated using this ratio.
# [2] = Plasma pharmacokinetics following a single oral dose in CD-1 mice; type: in vivo; conditions: single oral dose 25 mg/kg in PEG 200, CD-1 male mice; given at 1 μmol/kg
# In short: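 Male CD-1 mice given a single oral 25 mg/kg dose in PEG 200, with terminal plasma and liver taken from three animals per time point at 4, 12 and 24 h. Plasma 2′-methylguanosine measured by LC-MS/MS in positive ion mode with a deuterated internal standard, calibrated over 0.500 (LLOQ) to 200 ng/mL.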
# Stability in mouse blood = type: in vitro ADME; conditions: on ice, percent unchanged test compound
# In short: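 Test compound at 0.5 μM final in whole blood, held on ice; sampled at 0, 0.5 and 1 hr in triplicate. Samples quenched with acetonitrile containing internal standard and analysed by LC-MS/MS; percent unchanged compound from peak area ratio to internal standard.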
smiles,measurement,setting,value
"CCOc1nc(N)nc2c1ncn2[C@@H]1O[C@@H]2COP(=O)(OCCCC(=O)OC(C)C)O[C@H]2[C@@]1(C)F (single isomer, unassigned) [Compound 20 Diastereomer 1]",FHH TP Cmax,fresh human hepatocytes; fresh human hepatocytes,88 pmol/mill cells
same,FHH TP AUC,"fresh human hepatocytes; fresh human hepatocytes, 6, 24 and 48 hours",2393 pmol · hr/mill cells
same,Stability HLM (1 hr),[1],0.35%
same,Ms Plasma 2′-MeG AUC,[2],58 pmol · hr/mL at 1 μmol/kg
same,Ms Plasma 2′-MeG Cmax,[2],5.9 pmol/mL at 1 μmol/kg
same,Stability WB_Mouse (ice; 1 hr),Stability in mouse blood,1%

# — patent US9296778B2, “3′,5′-cyclic phosphate prodrugs for HCV infection” (Idenix Pharmaceuticals, Inc., priority 2012, dated 2016)
